We go through 12 compounds from patent publication US12492212B2, “Substituted pyrazolecarboxamides as sting activators” (Shanghai Institute of Materia Medica, Chinese Academy of …, priority 2019, dated 2025).

Test [1] deals with T1, STING (Homo sapiens, UniProt Q86WV6, G230A/H232R/R293Q/R71H).
T1 construct: THP1-Dual cells in the experiment were purchased from InvivoGen company; host or cells: THP1-Dual cells
Description: Type I interferon pathway (ISG) luciferase reporter in human THP1-Dual cells. As to conditions: test concentration 10 μM, 24 hours, ratio of LUM of compound to LUM of blank control. The format is cell-based. The protocol: In this experiment, the ability of compounds to activate STING was evaluated by detecting the ability of compounds to stimulate the production of IFN-β in human peripheral blood mononuclear cell line THP1-Dual cells. THP1-Dual cells in the experiment were purchased from InvivoGen company. […] THP1-Dual cells were counted, cell concentration was adjusted to be 1×10^6/ml, and 180 μl of cells was added to each well for incubation. […] In addition, the blank group was added with 200 μl of culture solution. After 24 hours, 20 μl of culture solution was took from each well to a new bottom transparent 96-well plate, and 50 μl luciferase detection reagent QUANTI-Luc™ was added, the fluorescence value was immediately determined. […] The data were described by the ratio of the LUM of compound to the LUM of blank control.

In test [2] the target is T2, STING (Homo sapiens, UniProt Q86WV6).
T2 construct: host or cells: human PBMCs
T2 sequence (Q86WV6 whole entry H232R): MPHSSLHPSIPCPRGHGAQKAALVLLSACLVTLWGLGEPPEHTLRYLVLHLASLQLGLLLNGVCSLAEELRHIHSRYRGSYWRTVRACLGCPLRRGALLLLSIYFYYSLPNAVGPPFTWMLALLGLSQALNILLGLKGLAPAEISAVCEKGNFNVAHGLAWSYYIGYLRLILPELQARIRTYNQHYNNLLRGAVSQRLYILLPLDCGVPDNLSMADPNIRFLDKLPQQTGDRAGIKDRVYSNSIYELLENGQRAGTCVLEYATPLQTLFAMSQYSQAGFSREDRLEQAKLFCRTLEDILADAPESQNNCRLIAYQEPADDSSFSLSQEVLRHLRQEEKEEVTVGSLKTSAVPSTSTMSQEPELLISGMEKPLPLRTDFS
Description: IFN β release from human PBMC cells stimulated by compound (ELISA). The format is cell-based. As to conditions: LPS 10 ng/ml, cultured overnight. As for the experimental part:
Example 23: Activation Effect of Compound on Type I Interferon Pathway (ISG) Produced by Human Peripheral Blood Mononuclear Cell Line PBMC Cells
In this experiment, the function of STING agonist was evaluated by detecting the changes of type I interferon IFN β produced by compound stimulating human peripheral blood mononuclear cell line PBMC cells (AllCells, Cat #: PB005F). Before use, cryopreserved PBMCs were thawed in RPMI1640 medium and resuscitated overnight. The test compound was dissolved into DMSO and formulated as a mother liquor with a concentration of 10 mM. Before testing, the compound was diluted to 100 times of the working concentration (the working concentration was 30, 10, 3.33, 1.11, 0.370, 0.123, 0.0412, 0.0137 uM, respectively). PBMCs were collected and adjusted to a cell concentration of 5×10^5/ml. LPS was added to PBMCs at a final concentration of 10 ng/ml. In the 96-well cell culture plate, 200 ul PBMCs (1×10^5 cells per well) were added to each well. Then 2 ul diluted compound per well (duplicate wells, the final concentration of DMSO in each well was 1%) was added. Then a pipette was used to carefully mix the cells and the compound evenly. 2 ul DMSO (1% of final concentration) was added to the negative control. The cells were cultured overnight in an incubator at 37° C. The cell culture supernatant was collected to detect the concentration of type I interferon IFN β. The concentration of IFNβ was determined by ELISA kit of solid-phase antibody R&D-MAB8144-100 and detecting antibody R&D-MAB8143-100 (Biotinylated), converted into […] concentration according to standard curve, and EC50 value was calculated by GraphPad 5.0 fitting calibration curve.
In general terms: An ELISA detects its analyte on a solid surface through an enzyme-linked reagent.

The test system of another test is CT26 colon cancer. Briefly: CT26 colon cancer subcutaneous transplantation tumor model. The format is in vivo, Balb/C female mice. The settings on record: CT26, Balb/C mice, 0.1 mg/kg and 0.3 mg/kg, 1st, 4th and 7th days after grouping, vs negative control, FIG. 1. As for the experimental part:
Example 25: The Efficacy Study of the Compound of the Present Invention in the CT26 Colon Cancer Subcutaneous Transplantation Tumor Model
In this experiment, 4-6 weeks old Balb/C female mice were used, and CT26 cells (2.5*10^5) were injected subcutaneously into axils of each mouse. The tumor growth of mice was observed. Grouping was started when the tumor volume was 50-100 mm^3. The compound 19 of the present invention and the negative control were administrated. The compound 19 of the present invention and the negative control were administrated on 1st, 4th and 7th days after grouping. The dosage of the compound 19 in each group was 0.1 mg/kg and 0.3 mg/kg respectively. The experimental results were evaluated in the form of tumor volume growth curves, and the experimental results were shown in FIG. 1.

For the next test, the system named is EMT6 breast cancer. Description: EMT6 breast cancer orthotopic transplantation tumor model. The settings on record: EMT6, Balb/C mice, 1 mg/kg, 1st, 4th and 9th days after grouping, vs negative control, FIG. 2. The test is classed as in vivo, Balb/C female mice. The protocol: Example 26: The Efficacy Study of the Compound of the Present Invention in the EMT6 Breast Cancer Orthotopic Transplantation Tumor Model
In this experiment, 4-6 weeks old Balb/C female mice were used, and EMT6 cells (2.5*10^5) were injected subcutaneously into axils of each mouse. The tumor growth of mice was observed. Grouping was started when the tumor volume was 50-100 mm^3. The compound 19 of the present invention and the negative control were administrated on 1st, 4th and 9th days after grouping. The dosage of compound 19 of the present invention was 1 mg/kg. The experimental results were evaluated in the form of tumor volume growth curves, and the experimental results were shown in FIG. 2.

Molecules are shown by their SMILES.

T1 sequence (Q86WV6 whole entry R71H/G230A/H232R/R293Q): as the sequence (Q86WV6 whole entry H232R) above, with R71H, G230A, R293Q counted along it

As for `CCn1nc(C)cc1C(=O)Nc1nc2cc(C(N)=O)ccc2n1C/C=C/Cn1c(NC(=O)c2cc(C)nn2CC)nc2cc(C(N)=O)cc(OCCCO)c21` [GSK compound 1, reference compound], the “Fold change (Ratio to control)” value on STING [1] is 80.54.

Regarding `COc1cc(C(N)=O)cc2nc(NC(=O)c3cc(C)nn3CC(F)(F)F)n(C/C=C/Cn3c(NC(=O)c4cc(C)nn4CC(F)(F)F)nc4cc(C(N)=O)c5oc(C)cc5c43)c12` [Example 6], at STING [1], the “Fold change (Ratio to control)” value amounted to 86.31.

In the case of `COc1cc(C(N)=O)cc2nc(NC(=O)c3cc(C)nn3CC3CC3)n(C/C=C/Cn3c(NC(=O)c4cc(C)nn4CC4CC4)nc4cc(C(N)=O)c5oc(C)cc5c43)c12` [Example 5], at STING [1], the “Fold change (Ratio to control)” value was 66.65.

With `C#CCn1nc(C)cc1C(=O)Nc1nc2cc(C(N)=O)cc(OCCCO)c2n1C/C=C/Cn1c(NC(=O)c2cc(C)nn2CC#C)nc2cc(C(N)=O)c3oc(C)cc3c21` [Example 10], the “Fold change (Ratio to control)” value on STING [1] amounted to 13.14.

For orientation: EC50 means the midpoint of the concentration-response curve. A higher EC50 goes with a less potent agent. `CCn1nc(C)cc1C(=O)Nc1nc2cc(C(N)=O)cc(OC)c2n1CCCCn1c(NC(=O)c2cc(C)nn2CC)nc2cc(C(N)=O)c3c(c21)CC(C)(C)O3` [Example 1, 1-(4-(5-carbamoyl-2-(1-ethyl-3-methyl-1H-pyrazol-5-formamido)-7-methoxy-1H-benzo[d]imidazol-1-yl)butyl)-2-(1-ethyl-3-methyl-1H-pyrazol-5-formamido)-7,7-dimethyl-7,8-dihydro-1H-benzofuran[4,5-d]imidazol-5-formamide] had an EC50 on STING [2] of 362 nM.

On to `CCn1nc(C)cc1C(=O)Nc1nc2cc(C(N)=O)cc(OCCCN3CCOCC3)c2n1C/C=C/Cn1c(NC(=O)c2cc(C)nn2CC)nc2cc(C(N)=O)c3oc(C)cc3c21` [Example 19], for which, on STING [1], the “Fold change (Ratio to control)” value is recorded as 90.48. For the same compound, the “anti-tumor effect (tumor volume growth curves)” value with CT26 colon cancer and in the test on EMT6 breast cancer was “significant anti-tumor effect” each time.

For the compound `C=CCn1nc(C)cc1C(=O)Nc1nc2cc(C(N)=O)cc(OC3COC3)c2n1C/C=C/Cn1c(NC(=O)c2cc(C)nn2CC=C)nc2cc(C(N)=O)c3oc(C)cc3c21` [Example 18], the “Fold change (Ratio to control)” value at STING [1] is recorded as 175.49.

Regarding `CCn1nc(C)cc1C(=O)Nc1nc2cc(C(N)=O)cc(OC)c2n1C/C=C/Cn1c(NC(=O)c2cc(C)nn2CC)nc2cc(C(N)=O)cc(OCCCN3CCOCC3)c21` [GSK compound 3, reference compound], on STING [1], the “Fold change (Ratio to control)” value is reported as 70.83.

`CCn1nc(C)cc1C(=O)Nc1nc2cc(C(N)=O)cc(OC)c2n1CCCCn1c(NC(=O)c2cc(C)nn2CC)nc2cc(C(N)=O)c3oc(C)cc3c21` [Example 2] displayed an EC50 at STING [2] of 103 nM. In addition, the “Fold change (Ratio to control)” value on STING [1] came out at 53.15.

Take `C=CCn1nc(C)cc1C(=O)Nc1nc2cc(C(N)=O)cc(OCCCO)c2n1C/C=C/Cn1c(NC(=O)c2cc(C)nn2CC=C)nc2cc(C(N)=O)c3oc(C)cc3c21` [Example 9]: the “Fold change (Ratio to control)” value at STING [1] is recorded as 148.64.

On to `Cc1cc(C(=O)Nc2nc3cc(C(N)=O)cc(OCCCN4CCOCC4)c3n2C/C=C/Cn2c(NC(=O)c3cc(C)nn3CC(F)(F)F)nc3cc(C(N)=O)c4oc(C)cc4c32)n(CC(F)(F)F)n1` [Example 20], for which the “Fold change (Ratio to control)” value on STING [1] is 159.71.

In turn, `CCn1nc(C)cc1C(=O)Nc1nc2cc(C(N)=O)cc(OC)c2n1C/C=C/Cn1c(NC(=O)c2cc(C)nn2CC)nc2cc(C(N)=O)c3oc(C)cc3c21` [Example 3, (E)-1-(4-(5-carbamoyl-2-(1-ethyl-3-methyl-1H-pyrazol-5-formamido)-7-methoxy-1H-benzo[d]imidazol-1-yl)but-2-en-1-yl)-2-(1-ethyl-3-methyl-1H-pyrazol-5-formamido)-7-methyl-1H-benzofuran[4,5-d]imidazol-5-formamide] had an EC50 at STING [2] of 4.92 nM. Also, on STING [1], the “Fold change (Ratio to control)” value is given as 62.82.
